These results are taken from patent publication US8404803B2, “Cancer-associated antigen analogue peptides and uses thereof” (Chugai Seiyaku Kabushiki Kaisha, priority 2005, dated 2013).

In assay [1] the test system is CD4-positive/IL-4-producing T cells. The assay can be described thus: Flow cytometry detection of CD4-positive/IL-4-positive T cells in peptide-stimulated mononuclear cell samples. It counts as cell-based, human. Conditions: for CD4-positive/IL-4-positive frequencies, mean ± standard deviation: epitope determination, patient's mononuclear cell samples (FIG. 14); for CD4+ IL-4+ number of positive samples/tested samples: mononuclear cell samples cultured 48 hours with peptide and IL-2; for CD4+ IL-4+ number of positive samples/tested samples / CD4+ IL-4+ number of positive samples/tested samples × 100 (%): positive sample > mean of control + 2 × SD (OVCA10-MNC group, 1.148%); for frequency of CD4-positive/IL-4-positive cells, mean±standard deviation: all the analyzed mononuclear cell samples (FIG. 8); for frequency of CD4-positive/IL-4-positive T cells: typical example of flow cytometry, FIGS. 6 and 7, IL-2 and analogue peptide added. The protocol:
(§1) All operations concerning cell culture were performed aseptically. First, human peripheral mononuclear cell fractions (comprising T cells, B cells, macrophages and such; hereinafter referred to as “mononuclear cell samples”) were prepared from the blood samples by density gradient centrifugation. Next, these mononuclear cells were suspended at 1×10^5 cell/ml in complete media having the following composition: • Complete Medium: RPMI1640 culture medium (Gibco Laboratories Inc., Grand Island, N.Y.) to which 10% fetal bovine serum (Cell Culture Laboratories, Cleveland, Ohio), 0.2 mM L-glutamine, 100 U/mL penicillin, 100 μg/mL streptomycin (Gibco Laboratories Inc.), and 0.2 ng/mL recombinant human IL-2 (Dainippon Pharmaceutical Co., Tokyo, Japan) have been mixed.
(§2) Theses mononuclear cell samples were placed still in V-bottomed 96-well tissue culture plastic plates (Flow Laboratories Inc., Horsham, Pa.) in the presence and absence of peptides, and cultured for 48 hours at 37° C. in a CO2 culture apparatus (Sanyo Medica, Osaka, Japan).
(§3) A number of mouse-derived anti-human specific monoclonal antibodies with different fluorescences (hereinafter referred to as ‘monoclonal antibodies’) were used to simultaneously analyze by double-staining the CD markers CD4 and CD8, which are on the T cell membranes, and the cytokines within the T cells. As the monoclonal antibodies, products labeled with either fluorescent substance phycoerythrin (hereinafter ‘PE’) or fluorescein isothiocyanate (hereinafter ‘FITC’) were used (Miltenyi Biotec, Glandbach, Germany). For detection, a flow cytometry apparatus FACScan (Becton Dickinson) was used to measure the frequency of cells to which the monoclonal antibodies had bound. Positive cells are automatically detected by the flow cytometry apparatus.
(§4) Since positive cells cannot be identified after the cytokines have been secreted to the outside of the cells, detection was performed at a stage where the cytokines are inside the cells. Therefore, the Cytofix/Cytoperm Kit (Pharmingen, San Diego, Calif.) was used for the analysis, using methods recommended by the manufacturer and a positive control for detection recommended by the kit (Prussin C, Metcalfe D, Detection of intracytoplasmic cytokine using flow cytometry and directly conjugated anti-cytokine antibodies, J Immunol Meth. 188: 117-128, 1995). Specifically, brefeldin A (Pharmingen, San Diego, Calif.) was added at 0.7 μl/1 ml/well to stop protein production in the Golgi apparatus, and the peptide-stimulated mononuclear cell samples were treated at 37° C. for two hours. Next, the culture plates were placed on ice and the reaction was stopped by adding physiological saline at 4° C. The mononuclear cell samples were transferred into 15 ml tubes as though by washing with the physiological saline at 4° C., and were then centrifuged at 1600 rpm for ten minutes to remove the supernatant.
(§5) First, to dye CD4s on the cell surface, 10 μl of FITC-labeled mouse anti-human CD4 was added, with CD8 monoclonal antibody as a control, and this was reacted at 4° C. for 30 minutes. The cells were then separated with 0.5% bovine serum albumin/physiological saline at 4° C., then 0.5% bovine serum albumin/physiological saline at 4° C. was added thereto, and this was centrifuged at 1600 rpm for ten minutes at 4° C. to remove the supernatant.
(§6) Next, the mononuclear cell samples were fixed and their cell membranes were permeabilized. The cells were suspended in 250 μl of Cytofix/Cytoperm (Pharmingen) solution and reacted at 4° C. for 20 minutes. 10 μl of the aforementioned fluorescently labeled anti-IFNγ monoclonal antibody or anti-IL-4 monoclonal antibody was added to these mononuclear cell samples and reacted at 4° C. for 30 minutes. Then, the cells were separated by adding 0.5% bovine serum albumin/physiological saline at 4° C., and 0.5% BSA/PBS at 4° C. was further added thereto. After centrifugation at 1600 rpm for ten minutes at 4° C., the supernatant was removed. […]

For assay [2], the system named is CD4-positive/IFNγ-producing T cells. Put plainly: Flow cytometry detection of CD4-positive/IFNγ-positive T cells in peptide-stimulated mononuclear cell samples. It counts as cell-based, human. To be noted: for CD4-positive/IFNγ expression-positive frequencies, mean ± standard deviation: epitope determination, patient's mononuclear cell samples (FIG. 16); for CD4+ IFNγ+ number of positive samples/tested samples: mononuclear cell samples cultured 48 hours with peptide and IL-2; for CD4+ IFNγ+ number of positive samples/tested samples / CD4+ IFNγ+ number of positive samples/tested samples × 100 (%): positive sample > mean of control + 2 × SD (OVCA10-MNC group, 1.378%); for frequency of CD4-positive/INFγ-positive cells, mean±standard deviation: all of the analyzed mononuclear cell samples (FIG. 11); for frequency of CD4-positive/IFNγ-positive T cells: typical example of flow cytometry, FIGS. 9 and 10, IL-2 and analogue peptide added. On the procedure:
as §1, §2, §3, §4, §5, §6

“And” between values parts separate entries of the source, which are not always exact repeats. Equal values may be shown once.

On to “ETTATGPLLV (listed as Homo sapiens) [OVCA104]”, for which the “CD4-positive/IL-4-positive frequencies, mean ± standard deviation” value in assay [1] (peptide 15 μM) was found to be 0.301±0.340%. In addition, in assay [1], the “CD4+ IL-4+ number of positive samples/tested samples” value was 0/14 and the “CD4+ IL-4+ number of positive samples/tested samples × 100 (%)” value is recorded as 0%. For the same sequence, the “CD4-positive/IFNγ expression-positive frequencies, mean ± standard deviation” value in assay [2] (peptide 15 μM) was 0.376±0.490%. Also, in assay [2], the “CD4+ IFNγ+ number of positive samples/tested samples” value is 1/14 and the “CD4+ IFNγ+ number of positive samples/tested samples × 100 (%)” value stood at 7.1%.

Regarding “GHTAPGPLLV (listed as Homo sapiens) [OVCA102]”, in assay [1] (peptide 15 μM), the “CD4-positive/IL-4-positive frequencies, mean ± standard deviation” value came to 0.231±0.309%. Besides, in assay [1], the “CD4+ IL-4+ number of positive samples/tested samples” value is given as 0/14 and the “CD4+ IL-4+ number of positive samples/tested samples × 100 (%)” value stood at 0%. The “CD4-positive/IFNγ expression-positive frequencies, mean ± standard deviation” value in assay [2] (peptide 15 μM) was 0.532±0.545%. In addition, in assay [2], the “CD4+ IFNγ+ number of positive samples/tested samples” value is given as 1/14 and the “CD4+ IFNγ+ number of positive samples/tested samples × 100 (%)” value was found to be 7.1%.

For “GHTAPVPLLI (listed as Homo sapiens) [OVCA101]”, in assay [1] (peptide 15 μM), the “CD4-positive/IL-4-positive frequencies, mean ± standard deviation” value was 0.181±0.231%. In addition, in assay [1], the “CD4+ IL-4+ number of positive samples/tested samples” value was 0/14 and the “CD4+ IL-4+ number of positive samples/tested samples × 100 (%)” value amounted to 0%. Moreover, the “CD4-positive/IFNγ expression-positive frequencies, mean ± standard deviation” value in assay [2] (peptide 15 μM) was 0.471±0.562%. For the same sequence, in assay [2], the “CD4+ IFNγ+ number of positive samples/tested samples” value is given as 2/14 and the “CD4+ IFNγ+ number of positive samples/tested samples × 100 (%)” value amounted to 14.3%.

“GPSAASPLLV (listed as Homo sapiens) [OVCA106]”: the “CD4-positive/IL-4-positive frequencies, mean ± standard deviation” value in assay [1] (peptide 15 μM) was 0.649±1.337%. Besides, in assay [1], the “CD4+ IL-4+ number of positive samples/tested samples” value is 2/14 and the “CD4+ IL-4+ number of positive samples/tested samples × 100 (%)” value was determined as 14.3%. Also, in assay [2] (peptide 15 μM), the “CD4-positive/IFNγ expression-positive frequencies, mean ± standard deviation” value is 0.641±1.082%. In assay [2], the “CD4+ IFNγ+ number of positive samples/tested samples” value is 2/14 and the “CD4+ IFNγ+ number of positive samples/tested samples × 100 (%)” value was determined as 14.3%.

Consider “GPTTASPLLV (listed as Homo sapiens) [OVCA105]”, for which the “CD4-positive/IL-4-positive frequencies, mean ± standard deviation” value in assay [1] (peptide 15 μM) turned out to be 0.243±0.358%. In addition, in assay [1], the “CD4+ IL-4+ number of positive samples/tested samples” value is 1/14 and the “CD4+ IL-4+ number of positive samples/tested samples × 100 (%)” value came to 0%. In addition, the “CD4-positive/IFNγ expression-positive frequencies, mean ± standard deviation” value in assay [2] (peptide 15 μM) is listed as 0.379±0.497%. Moreover, in assay [2], the “CD4+ IFNγ+ number of positive samples/tested samples” value is 1/14 and the “CD4+ IFNγ+ number of positive samples/tested samples × 100 (%)” value turned out to be 7.1%.

For the sequence “GTSGTPASLPGHTAPGPLLV (listed as Homo sapiens) [OVCA10]”, the “frequency of CD4-positive/IL-4-positive cells, mean±standard deviation” value in assay [1] (peptide 15 μM) is recorded as 0.252±0.448%. Also, in assay [1], the “CD4+ IL-4+ number of positive samples/tested samples” value is listed as 1/33, the “CD4+ IL-4+ number of positive samples/tested samples × 100 (%)” value was 3.0% and the “frequency of CD4-positive/IL-4-positive T cells” value stood at 0.05%. Moreover, the “frequency of CD4-positive/INFγ-positive cells, mean±standard deviation” value in assay [2] (peptide 15 μM) stood at 0.328±0.525%. Also, in assay [2], the “CD4+ IFNγ+ number of positive samples/tested samples” value is 1/33, the “CD4+ IFNγ+ number of positive samples/tested samples × 100 (%)” value was found to be 3.0% and the “frequency of CD4-positive/IFNγ-positive T cells” value amounted to 0.11%.

As for “LRYEENMRHP (listed as Homo sapiens) [OVCA115]”, in assay [1] (peptide 15 μM), the “CD4-positive/IL-4-positive frequencies, mean ± standard deviation” value was 0.281±0.424%. Moreover, in assay [1], the “CD4+ IL-4+ number of positive samples/tested samples” value is 1/9 and the “CD4+ IL-4+ number of positive samples/tested samples × 100 (%)” value was determined as 11.1%. Besides, the “CD4-positive/IFNγ expression-positive frequencies, mean ± standard deviation” value in assay [2] (peptide 15 μM) is 0.161±0.157%. In assay [2], the “CD4+ IFNγ+ number of positive samples/tested samples” value is recorded as 0/8 and the “CD4+ IFNγ+ number of positive samples/tested samples × 100 (%)” value came out at 0%.

In the case of “LRYEENMRHPGSRKFNTTER (listed as Homo sapiens) [OVCA13]”, in assay [1], the “CD4+ IL-4+ number of positive samples/tested samples” value is given as 0/6 and the “CD4+ IL-4+ number of positive samples/tested samples × 100 (%)” value is on record as 0%. Further, in assay [2], the “CD4+ IFNγ+ number of positive samples/tested samples” value is recorded as 0/6 and the “CD4+ IFNγ+ number of positive samples/tested samples × 100 (%)” value is on record as 0%.

As to “PFTLNFTITNLRYEENMRHP (listed as Homo sapiens) [OVCA12]”, the “frequency of CD4-positive/IL-4-producing T cells compared to groups to which OVCA10 was added” value in assay [1] (FIG. 8, peptide 15 μM, statistically significant difference) was “higher”. For the same sequence, the “frequency of CD4-positive/IL-4-positive cells, mean±standard deviation” value in assay [1] (peptide 15 μM) worked out at 5.263±9.059%. For the same sequence, in assay [1], the “CD4+ IL-4+ number of positive samples/tested samples” value is 18 of the 33 and 18/33; the “CD4+ IL-4+ number of positive samples/tested samples × 100 (%)” value stood at 54.5%; the “frequency of CD4-positive/IL-4-positive T cells” value is reported as 0.57%. Further, the “frequency of CD4-positive/IFNγ-producing T cells compared to groups to which OVCA10 was added” value in assay [2] (FIG. 11, peptide 15 μM, statistically significant difference) is given as “higher”. Further, in assay [2] (peptide 15 μM), the “frequency of CD4-positive/INFγ-positive cells, mean±standard deviation” value was determined as 5.071±10.315%. In assay [2], the “CD4+ IFNγ+ number of positive samples/tested samples” value is 13 of the 33 and 13/33; the “CD4+ IFNγ+ number of positive samples/tested samples × 100 (%)” value came to 39.4%; the “frequency of CD4-positive/IFNγ-positive T cells” value stood at 0.28%.

With “RPIVPGPLLV (listed as Homo sapiens) [OVCA103]”, the “CD4-positive/IL-4-positive frequencies, mean ± standard deviation” value in assay [1] (peptide 15 μM) worked out at 0.211±0.269%. Moreover, in assay [1], the “CD4+ IL-4+ number of positive samples/tested samples” value is given as 0/14 and the “CD4+ IL-4+ number of positive samples/tested samples × 100 (%)” value worked out at 0%. The “CD4-positive/IFNγ expression-positive frequencies, mean ± standard deviation” value in assay [2] (peptide 15 μM) is given as 0.331±0.467%. In addition, in assay [2], the “CD4+ IFNγ+ number of positive samples/tested samples” value was 1/14 and the “CD4+ IFNγ+ number of positive samples/tested samples × 100 (%)” value was 7.1%.

For the sequence “STPGTSTVHLGTSGTPASLP (listed as Homo sapiens) [OVCA9]”, in assay [1], the “CD4+ IL-4+ number of positive samples/tested samples” value is reported as 0/29, the “CD4+ IL-4+ number of positive samples/tested samples × 100 (%)” value was 0% and the “frequency of CD4-positive/IL-4-positive T cells” value worked out at 0.05%. Further, in assay [2], the “CD4+ IFNγ+ number of positive samples/tested samples” value is reported as 2/29, the “CD4+ IFNγ+ number of positive samples/tested samples × 100 (%)” value worked out at 6.9% and the “frequency of CD4-positive/IFNγ-positive T cells” value is 0.02%.
